Source: patent US20260285850A1, “SUBSTITUTED OXAZOLIDINONES AND IMIDAZOLINONES AS HERBICIDES” (FMC CORPORATION, priority 2023, published 2026)

Tests used:
Assay type in all cases: in vivo
[1] = system: green foxtail (Setaria viridis); assay: Test A postemergence application, visual injury rating 0-100; settings: 10 days
Procedure, shortened: (§1)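 Plants in a loam and sand soil blend were treated with each test chemical, in a non-phytotoxic solvent system including surfactant, either sprayed on seeded soil before emergence or applied after emergence at the one- to two-leaf stage. Ten days later in the greenhouse, plants were compared with untreated controls and visually rated from 0 (no effect) to 100 (complete control).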

[2] = system: barnyardgrass (Echinochloa crus-galli); assay: as above; settings: 10 days
Procedure, shortened: as §1

[3] = system: oat, wild (wild oat, Avena fatua); assay: as above; settings: 10 days
Procedure, shortened: as §1

[4] = system: horseweed (Erigeron canadensis); assay: as above; settings: 10 days
Procedure, shortened: as §1

[5] = system: wheat (Triticum aestivum); assay: as above; settings: 10 days
Procedure, shortened: as §1

[6] = system: ryegrass, Italian (italian ryegrass, Lolium multiflorum); assay: as above; settings: 10 days
Procedure, shortened: as §1

[7] = system: ragweed (common ragweed, Ambrosia artemisiifolia); assay: as above; settings: 10 days
Procedure, shortened: as §1

corn (Zea mays) [8] = assay: as above; settings: 10 days
Procedure, shortened: as §1

soybean (Glycine max) [9] = assay: as above; settings: 10 days
Procedure, shortened: as §1

[10] = system: galium (catchweed bedstraw, Galium aparine); assay: as above; settings: 10 days
Procedure, shortened: as §1

kochia (Bassia scoparia) [11] = assay: as above; settings: 10 days
Procedure, shortened: as §1

[12] = system: blackgrass (Alopecurus myosuroides); assay: as above; settings: 10 days
Procedure, shortened: as §1

[13] = system: palmer (palmer amaranth, palmer pigweed, Amaranthus palmeri); assay: as above; settings: 10 days
Procedure, shortened: as §1

rice (Oryza sativa) = assay: Test B flooded paddy test, visual plant response rating 0-100; settings: 250 g ai/ha, Flood, applied to paddy water, evaluated after 13 days
Procedure, shortened: (§2)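 Treatment occurs at the 2-leaf stage by adding compound to floodwater standing 3 cm above the soil, a level kept for the whole test. Plants stay in the greenhouse 13 days before visual comparison with controls.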

[14] = system: sedge, umbrella (small-flower umbrella sedge, Cyperus difformis); assay: as above; settings: 250 g ai/ha, Flood, applied to paddy water, evaluated after 13 days
Procedure, shortened: as §2

[15] = system: barnyardgrass (Echinochloa crusgalli); assay: as above; settings: 250 g ai/ha, Flood, applied to paddy water, evaluated after 13 days
Procedure, shortened: as §2

[16] = system: ducksalad (Heteranthera limosa); assay: as above; settings: 250 g ai/ha, Flood, applied to paddy water, evaluated after 13 days
Procedure, shortened: as §2

[17] = system: green foxtail (Setaria viridis); assay: Test A preemergence soil spray, visual injury rating 0-100; settings: 10 days, 0 = no effect, 100 = complete control
Procedure, shortened: as §1

[18] = system: barnyardgrass (Echinochloa crus-galli); assay: as above; settings: 10 days, 0 = no effect, 100 = complete control
Procedure, shortened: as §1

[19] = system: oat, wild (wild oat, Avena fatua); assay: as above; settings: 10 days, 0 = no effect, 100 = complete control
Procedure, shortened: as §1

[20] = system: wheat (Triticum aestivum); assay: as above; settings: 10 days, 0 = no effect, 100 = complete control
Procedure, shortened: as §1

[21] = system: ryegrass, Italian (italian ryegrass, Lolium multiflorum); assay: as above; settings: 10 days, 0 = no effect, 100 = complete control
Procedure, shortened: as §1

[22] = system: ragweed (common ragweed, Ambrosia artemisiifolia); assay: as above; settings: 10 days, 0 = no effect, 100 = complete control
Procedure, shortened: as §1

corn (Zea mays) [23] = assay: as above; settings: 10 days, 0 = no effect, 100 = complete control
Procedure, shortened: as §1

soybean (Glycine max) [24] = assay: as above; settings: 10 days, 0 = no effect, 100 = complete control
Procedure, shortened: as §1

kochia (Bassia scoparia) [25] = assay: as above; settings: 10 days, 0 = no effect, 100 = complete control
Procedure, shortened: as §1

[26] = system: blackgrass (Alopecurus myosuroides); assay: as above; settings: 10 days, 0 = no effect, 100 = complete control
Procedure, shortened: as §1

[27] = system: palmer (palmer amaranth, palmer pigweed, Amaranthus palmeri); assay: as above; settings: 10 days, 0 = no effect, 100 = complete control
Procedure, shortened: as §1

[28] = 31 g ai/ha, postemergence, 0 = no effect, 100 = complete control
[29] = Postemergence, 125 g ai/ha, 0 is no effect, 100 is complete control

CCOC(=O)C1C=CC(NC(=O)C2(C)CN(c3cc(F)cc(Cl)c3)C(=O)O2)C1 (stereo not shown) [Compound 3]
90: Foxtail, Green plant response rating (0-100) [1, 28] | Foxtail, Green plant response rating (0 to 100 scale) [1, 29] | Oat, Wild plant response rating (0-100) [3, 28] | Oat, Wild plant response rating (0 to 100 scale) [3, 29] | Wheat plant response rating (0-100) [5, 28] | Wheat plant response rating (0 to 100 scale) [5, 29] | Ryegrass, Italian plant response rating (0 to 100 scale) [6, 29] | Soybean plant response rating (0-100) (soybean (Glycine max) [9]; [28]) | Soybean plant response rating (0 to 100 scale) (soybean (Glycine max) [9]; [29]) | Galium plant response rating (0 to 100 scale) [10, 29] | Blackgrass plant response rating (0 to 100 scale) [12, 29] | Plant response rating, Ducksalad (0 to 100 scale, 0 is no effect and 100 is complete control) [16] | Barnyardgrass plant response rating (0-100) ([18]; 31 g ai/ha) | Oat, Wild plant response rating (0 to 100 scale) ([19]; 125 g ai/ha) | Wheat plant response rating (0 to 100 scale) ([20]; 125 g ai/ha) | Ryegrass, Italian plant response rating (0 to 100 scale) ([21]; 125 g ai/ha)
30: Foxtail, Green plant response rating (0-100) ([17]; 31 g ai/ha) | Ragweed plant response rating (0 to 100 scale) ([22]; 125 g ai/ha)
70: Kochia plant response rating (0-100) (kochia (Bassia scoparia) [11]; [28]) | Kochia plant response rating (0 to 100 scale) (kochia (Bassia scoparia) [11]; [29]) | Amaranth, Palmer / Pigweed, Palmer plant response rating (0 to 100 scale) [13, 29] | Plant response rating, Rice (0 to 100 scale, 0 is no effect and 100 is complete control) (rice (Oryza sativa)) | Kochia plant response rating (0-100) (kochia (Bassia scoparia) [25]; 31 g ai/ha) | Blackgrass plant response rating (0 to 100 scale) ([26]; 125 g ai/ha)
20: Soybean plant response rating (0-100) (soybean (Glycine max) [24]; 31 g ai/ha)
100: Barnyardgrass plant response rating (0-100) [2, 28] | Barnyardgrass plant response rating (0 to 100 scale) [2, 29] | Corn plant response rating (0-100) (corn (Zea mays) [8]; [28]) | Corn plant response rating (0 to 100 scale) (corn (Zea mays) [8]; [29]) | Plant response rating, Sedge, Umbrella (0 to 100 scale, 0 is no effect and 100 is complete control) [14] | Foxtail, Green plant response rating (0 to 100 scale) ([17]; 125 g ai/ha) | Barnyardgrass plant response rating (0 to 100 scale) ([18]; 125 g ai/ha) | Kochia plant response rating (0 to 100 scale) (kochia (Bassia scoparia) [25]; 125 g ai/ha) | Amaranth, Palmer plant response rating (0 to 100 scale) ([27]; 125 g ai/ha)
95: Plant response rating, Barnyardgrass (0 to 100 scale, 0 is no effect and 100 is complete control) [15]
10: Oat, Wild plant response rating (0-100) ([19]; 31 g ai/ha) | Ragweed plant response rating (0-100) ([22]; 31 g ai/ha)
50: Horseweed plant response rating (0-100) [4, 28] | Ragweed plant response rating (0-100) [7, 28] | Amaranth, Palmer plant response rating (0-100) [13, 28] | Wheat plant response rating (0-100) ([20]; 31 g ai/ha) | Ryegrass, Italian plant response rating (0-100) ([21]; 31 g ai/ha) | Corn plant response rating (0-100) (corn (Zea mays) [23]; 31 g ai/ha) | Corn plant response rating (0 to 100 scale) (corn (Zea mays) [23]; 125 g ai/ha)
80: Horseweed plant response rating (0 to 100 scale) [4, 29] | Ryegrass, Italian plant response rating (0-100) [6, 28] | Ragweed plant response rating (0 to 100 scale) [7, 29] | Galium plant response rating (0-100) [10, 28] | Blackgrass plant response rating (0-100) [12, 28] | Soybean plant response rating (0 to 100 scale) (soybean (Glycine max) [24]; 125 g ai/ha) | Amaranth, Palmer plant response rating (0-100) ([27]; 31 g ai/ha)
0: Blackgrass plant response rating (0-100) ([26]; 31 g ai/ha)
